In patent US20030113330A1, “Methods for treating pulmonary fibrosis” (priority 1999, published 2003):
Entries after “also recorded” stand apart in the source; their conditions may differ. Where a SMILES comes first, the peptide text is derived from it. The star is where a group is joined. Cbz = O=C(OCc1ccccc1)*; CH2F = FC*

Legend:
[1] = system: primary rat AEC; assay: Fas ligand-induced apoptosis of primary rat alveolar epithelial cells; assay type: cell-based; details: lisinopril 500 ng/ml; for inhibition of Fas ligand-induced apoptosis of primary rat AEC (words): captopril, caspase inhibitors 60 uM
Procedure: Lung Cell Isolation and Detection of Apoptosis In Vitro. Primary alveolar epithelial cells (AEC) were isolated from adult male Wistar rats as described above. The primary cells were studied at day two of culture, a time at which they are type II cell-like by accepted morphologic and biochemical criteria, see Paine et al., Am. J. Physiol. […] All cells were seeded in 24-well or 6-well chambers, and all experiments were conducted at subconfluent densities of 80-90% in serum-free Ham's F12 medium. Test reagents were diluted with Ham's F12 medium and were applied for 20 hours at 37° C. in a 5% CO2 incubator.
Detection of apoptotic cells with propidium iodide (PI) was conducted as described above, following digestion of ethanol-fixed cells with DNAse-free RNAse in PBS containing 5 ug/ml PI.
Expression of FAS by alveolar epithelial cells is observed during bleomycin-induced fibrogenesis in mice. See Hagimoto, et al., Am. J. Respir. Cell Mol. Biol. 16:91-101 (1997). […] Apoptosis was detected by quantitation of fragmented nuclei (see above).
Cell Culture and Detection of Apoptosis. The human lung adenocarcinoma cell line A549 was obtained from American Type Culture Collection and cultured in Ham's F12 medium supplemented with 10% fetal bovine serum (FBS). Primary alveolar epithelial cells were isolated from adult male Wistar rats as described earlier (Uhal, B. D., I. Joshi, A. True, S. Mundle, A. Raza, A. Pardo and M. Selman. Fibroblasts isolated after fibrotic lung injury induce apoptosis of alveolar epithelial cells in vitro. Am. J. Physiol. 269:L819-L828, 1995); Wang, R., A. Zagariya, 0. Ibarra-Sunga, C. […] Am. J. Physiol. 276:L885-L889 (1999)). […] All cells were seeded in 24-well or 6-well chambers, and all experiments were conducted at subconfluent densities of 80-90% in serum-free Ham's F12 medium. Test reagents were diluted with serum-free Ham's F12 medium and were applied under serum-free conditions for 20 hours at 37C. in a 5% CO2 incubator. Detection of apoptotic cells with propidium iodide (PI) was conducted as described above Am. J. Physiol. 275:L1013-1017 (1998); Uhal et al., following digestion of ethanol-fixed cells with DNAse-free RNAse in PBS containing 5 μg/ml PI. In all assays, detached cells were retained by centrifugation of the culture vessels during fixation with 70% ethanol, or by retention of culture media and recovery by centrifugation before assay.
Apoptosis was detected by nuclear fragmentation as described above.

[2] = system: primary rat AEC; assay: Angiotensin II-induced apoptosis in primary rat AEC (nuclear fragmentation, PI); assay type: cell-based; details: ANGII 5.0 uM; saralasin 50 ug/ml, lisinopril 500 ng/ml
Description: Cell Culture. The human lung adenocarcinoma cell line A549 was obtained from American Type Culture Collection and cultured in Ham's F12 medium supplemented with 10% fetal bovine serum (FBS). Primary alveolar epithelial cells were isolated from adult male Wistar rats as described in Uhal et al., Am. J. Physiol. Suppl. (Oct.) 261:110-117 (1991) and Uhal et al., Am. J. Physiol. 269:L819-L828 (1995). The primary cells were studied at day two of culture, a time at which they are type II cell-like by accepted morphologic and biochemical criteria, see Uhal, Am. J. Physiol. 272:L1031-L1045 (1997). […] J. Physiol. Suppl. (October) 261:110-117 (1991). All cells were seeded in 24-well or 6-well chambers, and all experiments were conducted at subconfluent densities of 80-90% in serum-free Ham's F12 medium. Test reagents were diluted with Ham's F12 medium and were applied for 20 h at 37° C. in a 5% CO2 incubator.
Detection of Apoptosis. Detection of apoptotic cells with propidium iodide (PI) was conducted as described in Uhal, et al., Am. J. Physiol. 275:L1013-1017 (1998) following digestion of ethanol-fixed cells with DNAse-free RNAse in PBS containing 5 ug/ml PI. Assay of Annexin V binding by flow cytometry was performed essentially as described for human lung fibroblasts in Uhal, et al., Am. J. Physiol. 275:L998-L1005 (1998) after trypsinization of cells from culture vessels. Assay of Caspase-3 activity was performed on viable suspension cultures as reported in Uhal, et al., Am. J. Physiol. 275:L1013-1017 (1998). In all assays, detached cells were retained by centrifugation of the culture vessels during fixation with 70% ethanol, or by retention of culture media and recovery by centrifugation before assay.
For microscopy, cells were cultured on glass cover slips, incubated with test reagents and fixed with 70% ethanol. The fixed cells were immunolabeled overnight at 4° C. with monoclonal antibodies to cytokeratins 7 and 19 (Chemicon International, Temecula, Calif.), and then for one hour at 37° C. with anti-mouse IgG-rhodamine and DNAse-free RNAse (Boehringer Mannheim, Indianapolis, Ind.) The cover slips were then rinsed in distilled water three times and mounted under Fluoromount Solution (Southern Biotechnology Associates, Birmingham, Ala.) containing 5 ug/ml propidium iodide. Photomicroscopy was performed as described in Uhal, et al., Am. J. Physiol. 275:L1013-1017 (1998).
Apoptosis in alveolar epithelial cells was quantitated by fluorescence detection of chromatin condensation and nuclear fragmentation in alcohol-fixed cells stained with propidium iodide. See Uhal, et al., Am. J. Physiol. 275:L1013-1017 (1998). […] After 20 h, the culture vessel was centrifuged to retain detached cells and labeled with anticytokeratin antibodies and propidium iodide. […] Double labeling with PI and monoclonal antibodies to cytokeratins 7 and 19 identified cells with both apoptotic nuclear morphology and positive anticytokeratin immunoreactivity.

[3] = system: A549 cells; assay: Amiodarone-induced net cell loss in A549 cultures; assay type: cell-based, human; details: A549
Procedure: (§1) Primary alveolar epithelial cells were isolated from adult male Wistar rats. The primary cells were studied at day two of culture, a time at which they are type II cell-like by accepted morphologic and biochemical criteria. All primary cell preparations were of better than 90% purity assessed by acridine orange staining. All cells were seeded in 24-well or 6-well chambers, and all experiments were conducted at subconfluent densities of 80-90% in serum-free Ham's F12 medium. Test reagents were diluted with Ham's F12 medium and were applied for 20 hours at 37C. in a 5% CO2 incubator.
(§2) In all assays, detached cells were retained by centrifugation of the culture vessel at 300×g for 10 minutes with a centrifuge rotor designed for culture plates. For detection of necrosis (dye exclusion of PI), the PI was added directly to the cell culture medium immediately before centrifugation of the culture vessel. For detection of apoptosis, ethanol was added directly to the cell culture medium to a final concentration of 70% immediately before the centrifugation. Afterward, the ethanol was carefully removed and the total cell population (attached plus sedimented detached cells) were stained with PI as described above.
(§3) Importantly, unattached cells were recovered and included in the analyses, and thus the data represent true loss of cells rather than simple detachment from the substratum.

[4] = system: primary rat AEC; assay: Amiodarone-induced net cell loss in primary rat AEC cultures; assay type: cell-based; details: primary rat AEC
Procedure: as §1, §2, §3

| Compound | inhibition of Fas ligand-induced apoptosis of primary rat AEC (words) [1] | inhibition of ANGII-induced apoptosis of primary rat AEC [2] | effect on amiodarone-induced decrease in total cell number [3] | effect on amiodarone-induced decrease in total cell number [4] | inhibition of Fas ligand-induced apoptosis of primary rat AEC (words) ([1]; listed as ZVADfmk) | net cell loss abrogated [4] | inhibition of FASL-induced apoptosis ([1]; FASL 25 ng/ml, saralasin 5 mg/ml) | inhibition at 0.5 µg/mL ([1]; Rattus norvegicus, Epithelial cell, read-out: inhibition of FASL-induced apoptosis, FASL 25 ng/ml, saralasin 5 mg/ml) |
| --- | --- | --- | --- | --- | --- | --- | --- | --- |
| COc1ccc2c(c1OCc1ccccc1)C[C@@H](C(=O)O)N(C(=O)C(c1ccccc1)c1ccccc1)C2 [PD126055] | unable to significantly inhibit | unable to significantly inhibit |  |  |  |  |  |  |
| CCc1nc2c(C)cc(C)nc2n1Cc1ccc(-c2ccccc2-c2nn[nH]n2)cc1 [L158809] | could block | could block |  |  |  |  |  |  |
| C[C@H](CS)C(=O)N1CCC[C@H]1C(=O)O [captopril] | comparable efficacy to inhibit apoptosis; also recorded: blocked |  | significantly inhibited | significantly inhibited |  |  |  |  |
| COC(=O)C[C@H](NC(=O)[C@H](C)NC(=O)[C@@H](NC(=O)OCc1ccccc1)C(C)C)C(=O)CF [ZVAD-fmk, N-benzylcarboxy-Val-Ala-Asp-[O-Me]-CH2F] (Cbz-Val-Ala-Asp(OMe)-CH2F) | comparable efficacy to inhibit apoptosis |  | significantly inhibited | significantly inhibited | abrogate | 75% |  |  |
| CNCC(=O)N[C@@H](CCCN=C(N)N)C(=O)N[C@H](C(=O)N[C@@H](Cc1ccc(O)cc1)C(=O)N[C@H](C(=O)N[C@@H](Cc1cnc[nH]1)C(=O)N1CCC[C@H]1C(=O)N[C@@H](C)C(=O)O)C(C)C)C(C)C [saralasin] | blocked | completely inhibited | significantly inhibited | significantly inhibited |  |  | 92% |  |
| NCCCC[C@H](N[C@@H](CCc1ccccc1)C(=O)O)C(=O)N1CCC[C@H]1C(=O)O [lisinopril] | blocked | did not block |  |  |  |  |  | 87% |
